Results as given in US8822449B2, “Substituted aminoindanes and analogs thereof, and the pharmaceutical use thereof” (Sanofi, priority 2008, dated 2014).

Biological target: T1, sodium-proton exchanger of subtype 3 (NHE3) (Homo sapiens, UniProt P48764)
T1 construct: expressed in transfected cells
T1 sequence (P48764 26-834): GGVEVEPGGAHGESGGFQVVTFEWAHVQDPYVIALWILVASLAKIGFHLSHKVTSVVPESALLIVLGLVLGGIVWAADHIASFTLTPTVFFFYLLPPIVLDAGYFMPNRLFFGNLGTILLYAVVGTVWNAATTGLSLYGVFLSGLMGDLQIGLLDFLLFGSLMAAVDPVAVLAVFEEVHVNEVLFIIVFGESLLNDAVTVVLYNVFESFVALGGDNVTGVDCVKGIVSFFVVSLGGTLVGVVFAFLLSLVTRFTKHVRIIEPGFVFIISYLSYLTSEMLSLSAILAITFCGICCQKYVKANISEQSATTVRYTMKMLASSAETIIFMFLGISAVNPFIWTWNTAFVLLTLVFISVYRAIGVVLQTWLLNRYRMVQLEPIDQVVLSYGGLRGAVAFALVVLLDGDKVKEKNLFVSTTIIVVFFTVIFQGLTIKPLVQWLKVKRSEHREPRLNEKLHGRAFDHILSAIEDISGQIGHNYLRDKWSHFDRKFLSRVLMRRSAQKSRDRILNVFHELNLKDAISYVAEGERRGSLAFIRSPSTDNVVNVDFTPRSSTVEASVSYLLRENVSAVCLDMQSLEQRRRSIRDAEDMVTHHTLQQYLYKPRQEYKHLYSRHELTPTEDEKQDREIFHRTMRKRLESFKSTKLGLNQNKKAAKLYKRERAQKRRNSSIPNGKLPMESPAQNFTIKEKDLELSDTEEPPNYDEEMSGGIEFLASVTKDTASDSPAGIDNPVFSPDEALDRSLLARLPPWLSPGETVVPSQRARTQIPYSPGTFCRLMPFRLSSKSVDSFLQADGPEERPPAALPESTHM
Assay: Recovery of intracellular pH (pHi) after acidification in LAP1 cells stably expressing NHE3 (BCECF fluorescence, FLIPR)
Assay type: cell-based
Details: LAP1 cells stably expressing NHE3; pH recovery after acidification; range 1 is % inhibition at 10 μM; read-out: Activity range (inhibitory effect on NHE3)

| Compound | IC50 [nM] | inhibition at 10 µM [%] |
| --- | --- | --- |
| O=C1COC(=O)N1c1ccc(O[C@H]2c3cc(Cl)cc(Cl)c3C[C@@H]2N2CC[C@@H](O)C2)c(Cl)c1 [Example 424, 3-{3-chloro-4-[(1S,2S)-4,6-dichloro-2-((R)-3-hydroxypyrrolidin-1-yl)indan-1-yloxy]phenyl}oxazolidine-2,4-dione] | < 1000 |  |
| N[C@H]1CCCN([C@H]2CCc3ccccc3[C@@H]2Oc2ccc3cc[nH]c3c2)C1 (racemic) [Example 148, (S)-1-[rac-trans-(1,2)-1-(1H-indol-6-yloxy)-1,2,3,4-tetrahydronaphthalen-2-yl]piperidin-3-ylamine] |  | 20 to 50 |
| CN1CC(=O)N(c2ccc(Cl)c(O[C@H]3c4cc(Cl)cc(Cl)c4C[C@@H]3N3CC[C@@H](O)C3)c2)C1=O [Example 430, 3-{4-chloro-3-[(1S,2S)-4,6-dichloro-2-((R)-3-hydroxypyrrolidin-1-yl)indan-1-yloxy]phenyl}-1-methylimidazolidine-2,4-dione] | < 1000 |  |
| c1ccc2c(c1)C[C@H](N1CCCC1)[C@H]2Oc1ccc(-c2nccs2)cc1 (racemic) [Example 364, 2-[4-(rac-trans-(1,2)-2-pyrrolidin-1-ylindan-1-yloxy)phenyl]thiazole] | 1000 to 10000 |  |
| CS(=O)(=O)c1ccc(O[C@H]2c3cc(Cl)cc(Cl)c3C[C@@H]2N2CCC(N)(C(F)(F)F)C2)cc1 (mixture of isomers) [Example 302, 1-[trans-(1S,2S)-4,6-dichloro-1-(4-methanesulfonylphenoxy)indan-2-yl]-3-trifluoromethylpyrrolidin-3-ylamine] |  | 20 to 50 |
| N[C@@H]1CCCN([C@H]2CCc3ccccc3[C@@H]2Oc2cccc3ccc(Cl)nc23)C1 (racemic) [Example 41, (R)-1-[rac-trans-(1,2)-1-(2-chloroquinolin-8-yloxy)-1,2,3,4-tetrahydronaphthalen-2-yl]piperidin-3-ylamine] | 1000 to 10000 |  |
| CS(=O)(=O)c1ccc(O[C@H]2c3cc(Cl)cc(Cl)c3C[C@@H]2N2CC[C@H](N)C2)cc1 [Example 199, (S)-1-[trans-(1S,2S)-4,6-dichloro-1-(4-methanesulfonylphenoxy)indan-2-yl]pyrrolidin-3-ylamine] | < 1000 |  |
| N[C@@H]1CCCN([C@H]2CCc3ccccc3[C@@H]2Oc2ccc(F)c(C(F)(F)F)c2)C1 (racemic) [Example 69, (R)-1-[rac-trans-(1,2)-1-(4-fluoro-3-trifluoromethylphenoxy)-1,2,3,4-tetrahydronaphthalen-2-yl]piperidin-3-ylamine] |  | 20 to 50 |
| Clc1cnccc1O[C@H]1c2ccccc2C[C@@H]1N1CCCC1 (racemic) [Example 441, 3-chloro-4-(2-pyrrolidin-1-ylindan-1-yloxy)pyridine] | 1000 to 10000 |  |
| COc1ccc(C)cc1O[C@H]1c2ccccc2CC[C@@H]1N1CCC[C@@H](N)C1 (racemic) [Example 46, (R)-1-[rac-trans-(1,2)-1-(2-methoxy-5-methylphenoxy)-1,2,3,4-tetrahydronaphthalen-2-yl]piperidin-3-ylamine] |  | 20 to 50 |
| Cc1ccc(F)c(O[C@H]2c3ccccc3CC[C@@H]2N2CCC[C@H](N)C2)c1 (racemic) [Example 155, (S)-1-[rac-trans-(1,2)-1-(2-fluoro-5-methylphenoxy)-1,2,3,4-tetrahydronaphthalen-2-yl]piperidin-3-ylamine] |  | 20 to 50 |
| N[C@@H]1CCCN([C@H]2CCc3ccccc3[C@@H]2Oc2cccc3ncccc23)C1 (racemic) [Example 89, (R)-1-[rac-trans-(1,2)-1-(quinolin-5-yloxy)-1,2,3,4-tetrahydronaphthalen-2-yl]piperidin-3-ylamine] | 1000 to 10000 |  |
| N[C@H]1CCCN([C@H]2CCc3ccccc3[C@@H]2Oc2ccccc2OC(F)(F)F)C1 (racemic) [Example 159, (S)-1-[rac-trans-(1,2)-1-(2-trifluoromethoxyphenoxy)-1,2,3,4-tetrahydronaphthalen-2-yl]piperidin-3-ylamine] |  | 20 to 50 |
| CCN(CC)[C@@H]1Cc2ccccc2[C@H]1Oc1cccc(NC(N)=O)c1 (racemic) [Example 212, [3-(rac-trans-(1,2)-2-diethylaminoindan-1-yloxy)phenyl]-urea] | 1000 to 10000 |  |
| CS(=O)(=O)c1ccc(O[C@H]2c3cc(Cl)cc(Cl)c3C[C@@H]2N2CC[C@@H](O)C2)cc1 [Example 103, (R)-1-[trans-(1S,2S)-4,6-dichloro-1-(4-methanesulfonylphenoxy)indan-2-yl]pyrrolidin-3-ol] | < 1000 |  |
| C[C@@]1(N2CCCC2)Cc2ccccc2[C@H]1Oc1ccc(S(C)(=O)=O)cc1 (racemic) [Example 252, 1-[1-(4-methanesulfonylphenoxy)-2-methylindan-2-yl]pyrrolidine] |  | 20 to 50 |
| O=C1OCCN1c1ccc(Cl)c(O[C@H]2c3cc(Cl)cc(F)c3C[C@@H]2N2CC[C@@H](O)C2)c1 [Example 439, 3-{4-chloro-3-[(1S,2S)-6-chloro-4-fluoro-2-((R)-3-hydroxypyrrolidin-1-yl)indan-1-yloxy]phenyl}oxazolidin-2-one] | < 1000 |  |

More lines, now with the values ahead:

| IC50 [nM] | inhibition at 10 µM [%] | Compound |
| --- | --- | --- |
|  | 20 to 50 | NS(=O)(=O)c1ccc(O[C@H]2c3cc(Cl)cc(Cl)c3C[C@@H]2N2CCC(F)(F)CC2)cc1 [Example 484, 4-[(1S,2S)-4,6-dichloro-2-(4,4-difluoropiperidin-1-yl)indan-1-yloxy]benzenesulfonamide] |
| 1000 to 10000 |  | NS(=O)(=O)c1ccc(O[C@@H]2c3ccccc3C[C@H]2NC2CCCCCC2)c(F)c1 (racemic) [Example 713, 4-(rac-trans-(1,2)-2-Cycloheptylamino-indan-1-yloxy)-3-fluoro-benzenesulfonamide] |
| < 1000 |  | Cc1nnc(C)n1-c1ccc(O[C@H]2c3cc(Cl)cc(Cl)c3C[C@@H]2N(C)CCN(C)C)c(F)c1 [Example 726, N-{trans-(1S,2S)-4,6-Dichloro-1-[4-(3,5-dimethyl-[1,2,4]triazol-4-yl)-2-fluoro-phenoxy]-indan-2-yl}-N,N′,N′-trimethyl-ethane-1,2-diamine] |
| < 1000 |  | Cc1nnc(C)n1-c1ccc(O[C@H]2c3cc(Cl)cc(Cl)c3C[C@@H]2N2CCCC2)cc1 [Example 500, 4-[4-(trans-(1S,2S)-4,6-dichloro-2-pyrrolidin-1-ylindan-1-yloxy)phenyl]-3,5-dimethyl-4H-[1,2,4]triazole] |
| < 1000 |  | N#Cc1ccc(O[C@H]2c3cc(Cl)cc(Cl)c3C[C@@H]2N2CCC[C@@H](N)C2)c(F)c1 [Example 479, 4-[(1S,2S)-2-((R)-3-aminopiperidin-1-yl)-4,6-dichloroindan-1-yloxy]-3-fluorobenzonitrile] |
|  | 20 to 50 | CC(=O)Nc1cccc(O[C@H]2c3cc(Cl)cc(Cl)c3C[C@@H]2N2CCOCC2)c1 (racemic) [Example 646, N-[3-(rac-trans-(1,2)-4,6-dichloro-2-morpholin-4-ylindan-1-yloxy)phenyl]acetamide] |
| < 1000 |  | N[C@@H]1CCCN([C@H]2Cc3ccccc3[C@@H]2Oc2ccc(S(N)(=O)=O)cc2)C1 [Example 552, 4-[trans-(1S,2S)-2-((R)-3-aminopiperidin-1-yl)indan-1-yloxy]benzenesulfonamide] |
| 1000 to 10000 |  | CCOC(=O)c1ncoc1-c1ccc(O[C@H]2c3ccccc3CC[C@@H]2N2CCC[C@@H](N)C2)cc1 (racemic) [Example 583, 5-{4-[rac-trans-(1,2)-2-((R)-3-aminopiperidin-1-yl)-1,2,3,4-tetrahydronaphthalen-1-yloxy]phenyl}oxazole-4-carboxylic acid ethyl ester] |
| 1000 to 10000 |  | N#Cc1ccc(O[C@H]2c3cc(Cl)cc(Cl)c3C[C@@H]2N2CC[C@@H](O)C2)c(F)c1 [Example 554, 4-[trans-(1S,2S)-4,6-dichloro-2-((R)-3-hydroxypyrrolidin-1-yl)indan-1-yloxy]-3-fluorobenzonitrile] |
| 1000 to 10000 |  | O[C@@H]1CCN([C@H]2Cc3c(Cl)cc(Cl)cc3[C@@H]2Oc2ccc(-n3ccnc3)cc2)C1 [Example 728, (R)-1-[trans-(1S,2S)-4,6-Dichloro-1-(4-imidazol-1-yl-phenoxy)-indan-2-yl]-pyrrolidin-3-ol] |
| 1000 to 10000 |  | CCOc1cccc(O[C@@H]2c3ccccc3C[C@H]2N2CCC(CN)CC2)c1 (racemic) [Example 614, C-{1-[rac-trans-(1,2)-1-(3-ethoxyphenoxy)indan-2-yl]piperidin-4-yl}methylamine] |
| 1000 to 10000 |  | Cc1nnc(C)n1-c1ccc(C(=O)O[C@H]2c3cc(Cl)cc(Cl)c3C[C@@H]2N2CC[C@@H](O)C2)c(Cl)c1 [Example 710, 2-Chloro-4-(3,5-dimethyl-[1,2,4]triazol-4-yl)-benzoic acid trans-(1S,2S)-4,6-dichloro-2-((R)-3-hydroxy-pyrrolidin-1-yl)-indan-1-yl ester] |
| 1000 to 10000 |  | NCC1CCN([C@@H]2Cc3ccccc3[C@H]2Oc2ccc(-n3cncn3)cc2)C1 (mixture of isomers) [Example 618, C-{1-[rac-trans-(1,2)-1-(4-[1,2,4]triazol-1-ylphenoxy)indan-2-yl]pyrrolidin-3-yl}methylamine] |
